The nature of series [1]: Drug accumulation in wild-type Candida albicans SC5314 at 50 microg/ml incubated for 3 hrs by HPLC analysis. It is filed as ADME. The note with it: dose 50 µg/ml.
Series [2] concerns Candida albicans. Put plainly: Antifungal activity against wild-type Candida albicans SC5314 assessed as inhibition of fungal growth measured after 24 hrs by CLSI based microtiter plate analysis. The format is functional. To be noted: for MIC80: SC5314, read-out: MIC80.
For series [3], the system named is Candida albicans. Put plainly: microbe, parasite or virus in culture. It is filed as functional. The note with it: DSY654, time 24 hrs.

Each structure is given as a SMILES string. ≈ marks a conversion by molar mass, not a printed value. Calls of active or inactive are those of the source. The rule behind the calls is not given here.

As to `C=C1[C@H](O)[C@@]23CC[C@H]4[C@@](C)(CCC[C@@]4(C)C(=O)OCCCOc4ccc(C(=N)N)cc4)[C@@H]2CC[C@]1(O)C3`, the Drug uptake entry in series [1] is reported as “Active”. Further, in the series on Candida albicans [2] (Candida albicans), the MIC80 was found to be 64 µg/mL (≈ 125 µM).
With `C=CCc1ccc(O)c(-c2ccc(O)c(CC=C)c2)c1` [HONOKIOL], the Drug uptake result in series [1] (BLD = below limit of detection) is “Bld”. Moreover, the MIC against Candida albicans [3] worked out at 4 µg/mL (≈ 15 µM).
Turning to `Fc1ccc(C(c2ccc(F)cc2)N2CCNCC2)cc1`, in series [1] (BLD = below limit of detection), the Drug uptake result is “Bld”. Further, the MIC with Candida albicans [2] (Candida albicans, SC5314) was over 256 µg/mL.
`C=C1C(=O)[C@@]2(C)CC[C@@H]3[C@@]1(CC[C@H]1[C@@]3(C)CCC[C@@]1(C)C(=O)OCCCCCCCCCOc1ccc(C(=N)N)cc1)C2`: the Drug uptake result in series [1] (BLD = below limit of detection) is reported as “Bld”. Further, the MIC in the series with Candida albicans [2] (Candida albicans, SC5314) was 32 µg/mL (≈ 54.2 µM).
Take `C=C1C(=O)O[C@@]23CC[C@H]4[C@@](C)(CCC[C@@]4(C)C(=O)OCCCOc4ccc(C(=N)N)cc4)[C@@H]2CC[C@]1(O)C3`: the Drug uptake result in series [1] is given as “Active”. The MIC80 with Candida albicans [2] (Candida albicans) was 32 µg/mL (≈ 61 µM).
With `Cc1ccc(Sc2ccccc2N2CCNCC2)c(C)c1` [VORTIOXETINE], the Drug uptake entry in series [1] (BLD = below limit of detection) was “Bld”. In the series with Candida albicans [3], the MIC is 4 µg/mL (≈ 13.4 µM).
Consider `C=C(C)[C@@H]1CC[C@]2(C(=O)O)CC[C@]3(C)[C@H](CC[C@@H]4[C@@]5(C)CC[C@H](O)C(C)(C)[C@@H]5CC[C@]43C)[C@@H]12` [BETULINIC ACID], for which the Drug uptake entry in series [1] (BLD = below limit of detection) is on record as “Bld”. For the same compound, in the series on Candida albicans [2] (Candida albicans, SC5314), the MIC is over 256 µg/mL.
`C=C(C)[C@@H]1CC[C@]2(C(=O)OCCCOc3ccc(C(=N)N)cc3)CC[C@]3(C)[C@H](CC[C@@H]4[C@@]5(C)CC[C@H](O)C(C)(C)[C@@H]5CC[C@]43C)[C@@H]12`: the Drug uptake result in series [1] is “Active”. Besides, the MIC80 in the series on Candida albicans [2] (Candida albicans) came to 64 µg/mL (≈ 101 µM).
For `C=C1C(=O)[C@@]2(C)CC[C@@H]3[C@]1(CC[C@H]1[C@@]3(C)CCC[C@@]1(C)C(=O)O)C2`, in series [1] (BLD = below limit of detection), the Drug uptake entry was “Bld”.
For the compound `CC1(C)C2CCC1(C)C(O)C2` (stereo unspecified) [BORNEOL], the Drug uptake entry in series [1] (BLD = below limit of detection) is “Bld”. The MIC in the series with Candida albicans [2] (Candida albicans, SC5314) was over 256 µg/mL.
Turning to `O=C(O)c1ccccc1Nc1cccc(C(F)(F)F)c1` [FLUFENAMIC ACID], the Drug uptake result in series [1] (BLD = below limit of detection) is “Bld”. In addition, the MIC with Candida albicans [2] (Candida albicans, SC5314) is over 256 µg/mL.
Regarding `CCc1n(CCCI)c2ccccc2[n+]1C.[I-]`, the MIC80 in the series on Candida albicans [2] (Candida albicans) and with Candida albicans [3] was over 256 µg/mL in each case.
For the compound `C=C1[C@H](O)[C@@]23CC[C@H]4[C@@](C)(CCC[C@@]4(C)C(=O)O)[C@@H]2CC[C@]1(O)C3`, the Drug uptake result in series [1] (BLD = below limit of detection) was “Bld”. Besides, the MIC in the series on Candida albicans [2] (Candida albicans, SC5314) is over 256 µg/mL.
Consider `C[C@@]12CC[C@@H]3[C@@](CC[C@H]4[C@@]3(C)CCC[C@@]4(C)C(=O)O)(CC1=O)C2` [ISOSTEVIOL], for which the Drug uptake entry in series [1] (BLD = below limit of detection) is “Bld”.
For the compound `CC1(C)[C@@H]2CC[C@@]1(C)[C@@H](OC(=O)CCCOc1ccc(C(=N)N)cc1)C2`, the Drug uptake result in series [1] is “Active”. For the same compound, in the series with Candida albicans [2] (Candida albicans), the MIC80 came out at 8 µg/mL (≈ 22.3 µM).
`C=C1C(=O)[C@@]23CC[C@H]4[C@@](C)(CCC[C@@]4(C)C(=O)O)[C@@H]2CC[C@]1(O)C3`: the Drug uptake entry in series [1] (BLD = below limit of detection) is on record as “Bld”. For the same compound, the MIC result with Candida albicans [2] is “inactive”. The compound also registered an MIC against Candida albicans [3] of 256 µg/mL (≈ 770 µM).
Take `CCOC(=O)C1=C(COCCN)NC(C)=C(C(=O)OC)C1c1ccccc1Cl` (stereo unspecified) [AMLODIPINE]: in series [1] (BLD = below limit of detection), the Drug uptake result is listed as “Bld”. In the series with Candida albicans [3], this compound had an MIC of 32 µg/mL (≈ 78.3 µM).
Compound `CC/C(=C(/CC)c1ccc(O)cc1)c1ccc(O)cc1` [DIETHYLSTILBESTROL] came in with an MIC against Candida albicans [3] of 4 µg/mL (≈ 14.9 µM).
Turning to `C[C@@H]1CC[C@@]2(OC1)O[C@H]1C[C@H]3[C@@H]4CC=C5C[C@@H](O)CC[C@]5(C)[C@H]4CC[C@]3(C)[C@H]1[C@@H]2C` [DISOGENIN], in series [1] (BLD = below limit of detection), the Drug uptake entry is reported as “Bld”. For the same compound, the MIC in the series with Candida albicans [2] (Candida albicans, SC5314) is over 256 µg/mL.
Turning to `C[C@H]1[C@H](C)CC[C@]2(C(=O)O)CC[C@]3(C)C(=CC[C@@H]4[C@@]5(C)CC[C@H](O)C(C)(C)[C@@H]5CC[C@]43C)[C@H]12` [URSOLIC ACID], in series [1] (BLD = below limit of detection), the Drug uptake result is “Bld”.
Take `BrCCC[P+](c1ccccc1)(c1ccccc1)c1ccccc1.[Br-]`: the MIC80 in the series on Candida albicans [2] (Candida albicans) and against Candida albicans [3] was over 256 µg/mL in each case.
`C[C@@H]1CC[C@@]2(OC1)O[C@H]1C[C@H]3[C@@H]4CC=C5C[C@@H](OC(=O)CCCOc6ccc(C(=N)N)cc6)CC[C@]5(C)[C@H]4CC[C@]3(C)[C@H]1[C@@H]2C`: the Drug uptake entry in series [1] is reported as “Active”. In addition, the MIC80 in the series with Candida albicans [2] (Candida albicans) was 64 µg/mL (≈ 103 µM).
Take `Fc1ccc(C(c2ccc(F)cc2)N2CCN(C/C=C/c3ccccc3)CC2)cc1` [FLUNARIZINE]: in the series on Candida albicans [2], the MIC result was “inactive”. For the same compound, the MIC with Candida albicans [3] was 8 µg/mL (≈ 19.8 µM).
For `C#C[C@]1(O)CC[C@H]2[C@@H]3CCC4=CCCC[C@@H]4[C@H]3C(=C)C[C@@]21CC` [DESOGESTREL], in series [1] (BLD = below limit of detection), the Drug uptake result is reported as “Bld”. This compound also showed an MIC in the series on Candida albicans [3] of 4 µg/mL (≈ 12.9 µM).
In the case of `COc1ccc2c(CCCI)c3[n+](cc2c1OC)CCc1cc2c(cc1-3)OCO2.[I-]`, the MIC80 in the series on Candida albicans [2] (Candida albicans) was 64 µg/mL; against Candida albicans [3], 16 µg/mL.
As to `C=C1C(=O)O[C@@]23CC[C@H]4[C@@](C)(CCC[C@@]4(C)C(=O)O)[C@@H]2CC[C@]1(O)C3`, the Drug uptake entry in series [1] (BLD = below limit of detection) is “Bld”. Besides, the MIC with Candida albicans [2] (Candida albicans, SC5314) is over 256 µg/mL.
Take `Cc1cc(N)c2ccccc2[n+]1CCCCCI.[I-]`: the MIC80 in the series on Candida albicans [2] (Candida albicans) and against Candida albicans [3] was 128 µg/mL in each case.
Turning to `CC(=O)O[C@H]1C[C@@]2(C)[C@@H](C[C@@H](O)[C@H]3[C@@]4(C)CC[C@@H](O)[C@@H](C)[C@@H]4CC[C@@]32C)/C1=C(\CCC=C(C)C)C(=O)OCCCOc1ccc(C(=N)N)cc1`, the Drug uptake entry in series [1] is on record as “Active”. Further, the MIC80 in the series on Candida albicans [2] (Candida albicans) came out at 16 µg/mL (≈ 23.1 µM).
On to `CC1(C)CC[C@]2(C(=O)OCCCOc3ccc(C(=N)N)cc3)CC[C@]3(C)C(=CC[C@@H]4[C@@]5(C)CC[C@H](O)C(C)(C)[C@@H]5CC[C@]43C)[C@@H]2C1`, for which the Drug uptake entry in series [1] was “Active”. Besides, in the series with Candida albicans [2] (Candida albicans), the MIC80 came out at 4 µg/mL (≈ 6.32 µM).
For `O=C(OCCOCCO)c1ccccc1Nc1cccc(C(F)(F)F)c1` [ETOFENAMATE], the MIC result with Candida albicans [2] was “inactive”. Also, the MIC in the series on Candida albicans [3] amounted to 16 µg/mL (≈ 43.3 µM).
`N=C(N)c1ccc(OCCCBr)cc1`: the MIC80 with Candida albicans [2] (Candida albicans) and with Candida albicans [3] was over 256 µg/mL in each case.
In the case of `Clc1ccc2c(c1)CCc1cccnc1C2=C1CCNCC1` [DESLORATADINE], the Drug uptake entry in series [1] (BLD = below limit of detection) is given as “Bld”.
For `CC1(C)CC[C@]2(C(=O)O)CC[C@]3(C)C(=CC[C@@H]4[C@@]5(C)CC[C@H](O)C(C)(C)[C@@H]5CC[C@]43C)[C@@H]2C1` [OLEANOLIC_ACID], the Drug uptake result in series [1] (BLD = below limit of detection) is given as “Bld”. The MIC in the series on Candida albicans [2] (Candida albicans, SC5314) is over 256 µg/mL.
As to `CC(=O)O[C@H]1C[C@@]2(C)[C@@H](C[C@@H](O)[C@H]3[C@@]4(C)CC[C@@H](O)[C@@H](C)[C@@H]4CC[C@@]32C)/C1=C(\CCC=C(C)C)C(=O)O` [FUSIDIC ACID], in series [1] (BLD = below limit of detection), the Drug uptake result is “Bld”. For the same compound, the MIC in the series on Candida albicans [2] (Candida albicans, SC5314) was over 256 µg/mL.
As for `N=C(N)c1ccc(OCCCN2CCN(C(c3ccc(F)cc3)c3ccc(F)cc3)CC2)cc1`, in series [1], the Drug uptake result was “Active”. Further, the MIC80 in the series on Candida albicans [2] (Candida albicans) was 32 µg/mL (≈ 68.9 µM).

For the origin of these results see ChEMBL document CHEMBL5365543, “Benzamidine Conjugation Converts Expelled Potential Active Agents into Antifungals against Drug-Resistant Fungi” (J Med Chem, 2023).
